Measured values reported in US20240215577A1, “FUNGICIDAL PYRIDONES” (FMC Corporation, priority 2021, published 2024).

Experiments:
Assay type in all cases: in vivo
Conditions in all cases: 100 = 100% disease control, 0 = no control
Phakopsora pachyrhizi = assay: Test D: Asian soybean rust, preventive spray on soybean seedlings
Excerpt: (§1) General protocol for preparing test suspensions for Tests A-F: the test compounds were first dissolved in acetone in an amount equal to 3% of the final volume and then suspended at the desired concentration (in ppm) in acetone and purified water (50/50 mix by volume) containing 250 ppm of the surfactant PEG400 (polyhydric alcohol esters). The resulting test suspensions were then used in Tests A-F.
The test solution was sprayed to the point of run-off on soybean seedlings. The following day the seedlings were inoculated with a spore suspension of Phakopsora pachyrhizi (the causal agent of Asian soybean rust) and incubated in a saturated atmosphere at 22° C. for 24 h and then moved to a growth chamber at 22° C. for 8 days, after which time visual disease ratings were made.
(§2) A rating of 100 indicates 100% disease control and a rating of 0 indicates no disease control (relative to the controls). A dash (-) indicates the compound was not tested.

Botrytis cinerea = assay: Test E: tomato Botrytis, preventive spray on tomato seedlings
Excerpt: as §1
The test suspension was sprayed to the point of run-off on tomato seedlings. The following day the seedlings were inoculated with a spore suspension of Botrytis cinerea (the causal agent of tomato Botrytis) and incubated in a saturated atmosphere at 20° C. for 48 h, and then moved to a growth chamber at 24° C. for 3 days, after which time visual disease ratings were made.
as §2

[1] = tested on: Blumeria graminis f. sp. tritici; assay: Test C: wheat powdery mildew, preventive spray on wheat seedlings
Excerpt: as §1
The test suspension was sprayed to the point of run-off on wheat seedlings. The following day the seedlings were inoculated with a spore dust of Blumeria graminis f. sp. tritici, (also known as Eysiphe graminis f. sp. tritici, the causal agent of wheat powdery mildew) and incubated in a growth chamber at 20° C. for 8 days, after which time visual disease ratings were made.
as §2

Zymoseptoria tritici = assay: Test A: wheat leaf blotch, preventive spray on wheat seedlings
Excerpt: as §1
The test solution was sprayed to the point of run-off on wheat seedlings. The following day the seedlings were inoculated with a spore suspension of Zymoseptoria tritici (the causal agent of wheat leaf blotch) and incubated in a saturated atmosphere at 24° C. for 48 h, and then moved to a growth chamber at 20° C. for 17 days, after which time disease ratings were made.
as §2

[2] = tested on: Puccinia recondita f. sp. tritici; assay: Test B: wheat leaf rust, preventive spray on wheat seedlings
Excerpt: as §1
The test solution was sprayed to the point of run-off on wheat seedlings. The following day the seedlings were inoculated with a spore suspension of Puccinia recondita f. sp. tritici (the causal agent of wheat leaf rust) and incubated in a saturated atmosphere at 20° C. for 24 h, and then moved to a growth chamber at 20° C. for 7 days, after which time visual disease ratings were made.
as §2

Alternaria solani = assay: Test F: tomato early blight, preventive spray on tomato seedlings
Excerpt: as §1
The test suspension was sprayed to the point of run-off on tomato seedlings. The following day the seedlings were inoculated with a spore suspension of Alternaria solani (the causal agent of tomato early blight) and incubated in a saturated atmosphere at 27° C. for 48 h, and then moved to a growth chamber at 20° C. for 3 days, after which time visual disease ratings were made.
as §2

Structure (SMILES)	Test D disease control rating (Phakopsora pachyrhizi; 50 ppm)	Test E disease control rating (Botrytis cinerea; 50 ppm)	Test C disease control rating ([1]; 50 ppm)	Test A disease control rating (Zymoseptoria tritici; 50 ppm)	Test B disease control rating ([2]; 50 ppm)	Test F disease control rating (Alternaria solani; 50 ppm)	other results
COc1ccc(Cl)c(-c2cn(C)c(=O)c(Cl)c2-c2ccc(F)cc2Br)c1 [Compound 71]	73%	96%	100%	100%	100%	99%	
COc1cc(OC)c(Cl)c(-c2cn(O)c(=O)c(Cl)c2-c2ccc(F)cc2Cl)c1 [Compound 39, 3-chloro-5-(2-chloro-3,5-dimethoxyphenyl)-4-(2-chloro-4-fluorophenyl)-1-hydroxy-2(1H)-pyridinone]							pest or weed control at 50 ppm (Phakopsora pachyrhizi; Phakopsora pachyrhizi, 216 h, 50 ppm, read-out: Test D disease control rating): 77%; pest or weed control at 50 ppm (Botrytis cinerea; Botrytis cinerea, 50 ppm, read-out: Test E disease control rating): 56%; pest or weed control at 50 ppm ([1]; Blumeria graminis, 50 ppm, read-out: Test C disease control rating): 0%; pest or weed control at 50 ppm (Zymoseptoria tritici; Zymoseptoria tritici, 50 ppm, read-out: Test A disease control rating): 69%; pest or weed control at 50 ppm ([2]; Puccinia recondita, 50 ppm, read-out: Test B disease control rating): 86%; pest or weed control at 50 ppm (Alternaria solani; Alternaria solani, 50 ppm, read-out: Test F disease control rating): 0%
COc1ccc(Cl)c(-c2cn(C)c(=O)cc2-c2ccccc2C(F)(F)F)c1 [Compound 70]	0%	93%	83%	50%	68%	0%	
Cc1cc(F)ncc1-c1cn(C)c(=O)c(Cl)c1-c1ccc(F)cc1Cl [Compound 60]	65%	97%	73%	99%	95%	40%	
Cn1c(Cl)c(-c2ccc(F)cc2Cl)c(-c2c(F)cccc2F)c(Cl)c1=O [Compound 44]	96%	40%	79%	98%	93%	0%	
Cn1cc(-c2ccc(F)cc2)c(-c2c(F)cccc2F)c(Cl)c1=O [Compound 17]	75%	98%	0%	100%	99%	100%	
COc1ccc(Cl)c(-c2cn(C)c(=O)cc2-c2ccc(Br)cc2Cl)c1 [Compound 58]	0%	90%	0%	98%	55%	0%	
COc1ccc(F)c(-c2cn(C)c(=O)c(Cl)c2-c2ccc(F)cc2F)c1 [Compound 49]	73%	96%	0%	100%	100%	100%	
Cn1cc(-c2ccccc2C(F)(F)F)c(-c2ccc(F)cc2Cl)c(Cl)c1=O [Compound 27]	25%	58%	0%	98%	100%	0%	
COc1cc(-c2cn(C)c(=O)c(Cl)c2-c2ccc(F)cc2Cl)cc(OC)c1Cl [Compound 5, 3-chloro-5-(4-chloro-3,5-dimethoxyphenyl)-4-(2-chloro-4-fluorophenyl)-1-methyl-2(1H)-pyridinone]							pest or weed control at 250 ppm (Phakopsora pachyrhizi; Phakopsora pachyrhizi, 216 h, 250 ppm, read-out: Test D disease control rating): 78%; pest or weed control at 250 ppm (Botrytis cinerea; Botrytis cinerea, 250 ppm, read-out: Test E disease control rating): 98%; pest or weed control at 250 ppm ([1]; Blumeria graminis, 250 ppm, read-out: Test C disease control rating): 0%; pest or weed control at 250 ppm (Zymoseptoria tritici; Zymoseptoria tritici, 250 ppm, read-out: Test A disease control rating): 100%; pest or weed control at 250 ppm ([2]; Puccinia recondita, 250 ppm, read-out: Test B disease control rating): 100%; pest or weed control at 250 ppm (Alternaria solani; Alternaria solani, 250 ppm, read-out: Test F disease control rating): 99%
CCOn1cc(-c2cc(OC)cc(OC)c2)c(-c2ccc(F)cc2Cl)c(Cl)c1=O [Compound 45]							Test D disease control rating (Phakopsora pachyrhizi; 250 ppm): 0%; Test E disease control rating (Botrytis cinerea; 250 ppm): 97%; Test C disease control rating ([1]; 250 ppm): 72%; Test A disease control rating (Zymoseptoria tritici; 250 ppm): 100%; Test B disease control rating ([2]; 250 ppm): 91%; Test F disease control rating (Alternaria solani; 250 ppm): 0%
Cn1cc(-c2ccccc2Cl)c(-c2ccc(F)cc2Cl)c(Cl)c1=O [Compound 15]	0%	88%	69%	100%	100%	0%	
C=CCn1cc(-c2cc(OC)ccc2Cl)c(-c2ccc(F)cc2Cl)c(Cl)c1=O [Compound 77]	0%	91%	0%	40%	74%	0%	
Cn1cc(-c2cc(F)c(F)cc2F)c(-c2ccc(F)cc2Cl)c(Cl)c1=O [Compound 26]	0%	83%	0%	99%	86%	0%	
COc1cc(OC)c(Cl)c(-c2cn(OCC#N)c(=O)c(Cl)c2-c2ccc(F)cc2Cl)c1 [Compound 35]	92%	94%	73%	84%	100%	0%	
Cn1cc(-c2cc(F)ccc2Cl)c(-c2ccc(F)cc2Cl)cc1=O [Compound 34]	59%	98%	48%	100%	68%	0%	
CCOc1ccc(Cl)c(-c2cn(C)c(=O)c(Cl)c2-c2ccc(F)cc2F)c1 [Compound 52]	81%	99%	91%	100%	100%	99%	
